In US20110275807A1, “Application of Evodiamine in preparing medicaments for Alzheimer's disease” (Institute of Laboratory Animal Science, Chinese Academy of …, priority 2010, published 2011):

Key:
Assay type in all cases: in vivo
[1] = system: APPswe/PSΔE9 transgenic model of Alzheimer's disease; test: Morris water-maze test in Alzheimer's disease mice model; conditions: 100 mg/kg body weight/day in diet for 3 months; compared with the model group
Protocol: The evodiamine treatment group was administrated in the standard diet plus evodiamine in a dose of 100 mg/kg body weight/day for 3 months. The model group received a standard diet as the placebo control. After a three-month continuous administration, the Morris water-maze tests were performed to test the effect of evodiamine on improvement of learning and memory abilities of the Alzheimer's disease mice model.

IL-Iβ = test: ELISA of IL-Iβ in brain tissues of Alzheimer's disease model mice; conditions: 100 mg/kg body weight/day in diet for 3 months, compared with the model group
Protocol: (§1) The evodiamine treatment group was administrated in the standard diet plus evodiamine in a dose of 100 mg/kg body weight/day for 3 months. The model group received a standard diet as the placebo control.

IL-6 = test: ELISA of IL-6 in brain tissues of Alzheimer's disease model mice; conditions: 100 mg/kg body weight/day in diet for 3 months, compared with the model group
Protocol: as §1

TNF-α = test: ELISA of TNF-α in brain tissues of Alzheimer's disease model mice; conditions: 100 mg/kg body weight/day in diet for 3 months, compared with the model group
Protocol: as §1

cyclaoxygenase-2 (COX-2) = test: Western Blotting of COX-2 expression in brain tissue of Alzheimer's disease model mice; conditions: 100 mg/kg body weight/day in diet for 3 months, compared with the model group
Protocol: as §1, with “control. […] The inflammation is one of main reasons resulting in the pathological development of Alzheimer's disease, so Evodiamine can treat Alzheimer's disease.” for “control.”

In the case of Evodiamine, the “learning and memory abilities (Morris water-maze)” value [1] is reported as “significantly improved”, the “IL-Iβ in the brain tissues” value (IL-Iβ) is reported as “significantly decreased” and the “IL-6 in the brain tissues” value (IL-6) is reported as “significantly decreased”. The “TNF-α in the brain tissues” value (TNF-α) was “significantly decreased” and the “expression of the cyclaoxygenase-2 (COX-2) in the brain tissue” value (cyclaoxygenase-2 (COX-2)) was “reduced”.
